# Source: patent US7097848B2, “Synergistic insecticidal mixtures” (Bayer Cropscience AG, priority 2002, dated 2006)
# Experiments:
# Assay type in all cases: in vivo
# [1] = test system: larvae of the mustard beetle (Phaedon cochleariae); test: Phaedon larvae test (cabbage leaf dip); settings: activity found; for LC50 after 6 days: Table D (Example D)
# From the text: (§1) The expected activity for a given combination of two active compounds can be calculated as follows (cf. Carpenter, C. S., “Mammalian Toxicity of 1-naphthyl-N-methylcarbamate [Sevin Insecticide]”, Agricultural and Food Chemistry, Vol. 9, No. 1, pages 30–39, 1961):
# (§2) If • Pa is the proportion of active compound A in the mixture, • Pb is the proportion of active compound B in the mixture, • LC50 (or 95)a is the concentration at which 50% (or 95%) of the animals treated with active compound A are killed and • LC50 (or 95)b is the concentration at which 50% (or 95%) of the animals treated with active compound B are killed,
# (§3) If the calculated LC50 (or 95) exceeds the value actually obtained and is higher than the confidence interval, the activity of the combination is superadditive, i.e. a synergistic effect exists.
# (§4) To produce a suitable preparation of active compound, 1 part by weight of active compound is mixed with the stated amounts of solvent and emulsifier, and the concentrate is diluted with emulsifier-containing water to the desired concentration.
# Cabbage leaves (Brassica oleracea) are treated by being dipped into the preparation of active compound of the desired concentration and are populated with larvae of the mustard beetle (Phaedon cochleariae) while the leaves are still moist.
# After the desired period of time, the kill in % is determined. 100% means that all beetle larvae have been killed; 0% means that none of the beetle larvae have been killed. The determined kill rates are inserted in Carpenter's formula.
# (§5) To produce a suitable preparation of active compound, 1 part by weight of active compound is mixed with the stated amounts of solvent emulsifier, and the concentrate is diluted with emulsifier-containing water to the desired concentration.
# [2] = test system: caterpillars of the diamondback moths (Plutella xylostella, sensitive strain); test: Plutella test, sensitive strain (cabbage leaf dip); settings: activity found
# From the text: as §1, §2, §3, §4
# Cabbage leaves (Brassica oleracea) are treated by being dipped into the preparation of active compound of the desired concentration and are populated with caterpillars of the diamondback moths (Plutella xylostella, sensitive strain) while the leaves are still moist.
# (§6) After the desired period of time, the kill in % is determined. 100% means that all caterpillars have been killed; 0% means that none of the caterpillars have been killed. The determined kill rates are inserted in Carpenter's formula.
# as §5
# [3] = test system: green peach aphid (Myzus persicae); test: Myzus test (cabbage leaf dip); settings: activity found; for LC50 after 6 days: Table B (Example B)
# From the text: as §1, §2, §3, §4
# Cabbage leaves (Brassica oleracea), which are heavily infested by the green peach aphid (Myzus persicae) are treated by being dipped into the preparation of active compound of the desired concentration.
# After the desired period of time, the killed in % is determined. 100% means that all aphids have been killed. The determined kill rates are inserted into Carpenter's formula.
# After the desired period of time, the killed in % is determined. 100% means that all aphids have been killed; 0% means that none of the aphids have been killed. The determined kill rates are inserted into Carpenter's formula.
# [4] = test system: cotton aphid (Aphis gossypii); test: Aphis gossypii test (cotton leaf dip); settings: Table O (Example O); activity found
# From the text: as §1, §2, §3, §4
# Cotton leaves (Gossypium hirsutum), which are heavily infested by the cotton aphid (Aphis gossypii) are treated by being dipped into the preparation of active compound of the desired concentration.
# After the desired period of time, the killed in % is determined. […] The determined kill rates are inserted into Carpenter's formula.
# [5] = test system: Heliothis armigera caterpillars; test: Heliothis armigera test (soya bean shoot dip); settings: activity found
# From the text: as §1, §2, §3, §4
# Soya bean shoots (glycine max) are treated by being dipped into the preparation of active compound of the desired concentration and are populated with Heliothis armigera caterpillars while the leaves are still moist.
# After the desired period of time, the kill in % is determined. 100% means that all caterpillars have been killed; 0% means that none of the caterpillars have been killed. The determined kill rates are inserted into Carpenter's formula (see preceding page).
# After the desired period of time, the kill in % is determined. 100% means that all caterpillars have been killed; 0% means that none of the caterpillars have been killed. The determined kill rates are inserted into Carpenter's formula.
# [6] = test system: caterpillars of the diamondback moths (Plutella xylostella, resistant strain); test: Plutella test, resistant strain (cabbage leaf dip); settings: Table M (Example M); activity found
# From the text: as §1, §2, §3
# To produce a suitable preparation of active compound, 1 part by weight of active compound is mixed with the stated amounts of solvent and emulsifier, and the concentrate is diluted with emulsifier-containing water to the desired concentration. […]
# After the desired period of time, the kill in % is determined. […] The determined kill rates are inserted in Carpenter's formula.
# [7] = test system: caterpillars of the armyworm (Spodoptera frugiperda); test: Spodoptera frugiperda test (cabbage leaf dip); settings: activity found; for LC95 after 3 days: Table E (Example E)
# From the text: as §1, §2, §3, §4
# Cabbage leaves (Brassica oleracea) are treated by being dipped into the preparation of active compound of the desired concentration and are populated with caterpillars of the armyworm (Spodoptera frugiperda) while the leaves are still moist.
# as §6
Compound,LC95 after 6 days ([1]; Table Q (Example Q)),LC95 after 6 days ([2]; Table R (Example R)),LC95 after 1 day ([3]; Table P (Example P)),LC95 after 6 days [4],LC50 after 6 days ([5]; Table F (Example F)),LC95 after 6 days ([1]; Table G (Example G)),LC50 after 6 days ([5]; Table A (Example A)),LC50 after 6 days ([5]; Table J (Example J)),LC50 after 6 days [6],LC50 after 6 days [1],LC95 after 6 days ([1]; Table K (Example K)),LC95 after 6 days ([2]; Table C (Example C)),LC95 after 6 days ([2]; Table L (Example L)),LC95 after 3 days [7],LC50 after 6 days ([7]; Table I (Example I)),LC50 after 6 days ([7]; Table N (Example N)),LC50 after 6 days [3],LC95 after 1 day ([3]; Table H (Example H))
CC1(C)[C@H](C(=O)O[C@H](C#N)c2cccc(Oc3ccccc3)c2)[C@@H]1/C=C(\Cl)C(F)(F)F (racemic) [lambda-cyhalothrin],11.234 ppm,0.09 ppm,11.234 ppm,10.545 ppm,,,,,,,,,,,,,,
CC[C@H](C)[C@H]1O[C@]2(C=C[C@@H]1C)C[C@@H]1C[C@@H](C/C=C(\C)[C@@H](O[C@H]3C[C@H](OC)[C@@H](O[C@H]4C[C@H](OC)[C@@H](O)[C@H](C)O4)[C@H](C)O3)[C@@H](C)/C=C/C=C3\CO[C@@H]4[C@H](O)C(C)=C[C@@H](C(=O)O1)[C@]34O)O2 [avermectin],,,,,0.094 ppm,1.431 ppm,,,,,,,,,,,,
CN/C(=N\[N+](=O)[O-])NCc1cnc(Cl)s1 [clothianidin],7.690 ppm,28.46 ppm,1.303 ppm,4.954 ppm,15.0 ppm,11.234 ppm,0.997 ppm,3.527 ppm,27.271 ppm,6.708 ppm,17.504 ppm,42.493 ppm,9.045 ppm,6.099 ppm,2.450 ppm,0.178 ppm,1.013 ppm,5.988 ppm
CNC(=O)Oc1cc(C)c(SC)c(C)c1 [methiocarb],,,,,,,,,,,,,,,51.649 ppm,,,75.000 ppm
CC1(C)C(C=C(Cl)Cl)C1C(=O)OC(C#N)c1ccc(F)c(Oc2ccccc2)c1 (stereo not drawn) [β-cyfluthrin],,,,,,,0.159 ppm,,,0.646 ppm,,0.699 ppm,,1.113 ppm,,,2.583 ppm,
emamectin benzoate,,,,,,,,0.007 ppm,0.0012 ppm,,0.072 ppm,,0.0009 ppm,,,0.003 ppm,,
